Reference: patent publication US20040077599A1, “Novel spiro[2.4]heptane amino carboxy compounds and derivatives thereof” (priority 2000, published 2004)
Like-named read-outs stand apart in the source and are kept apart here.

What was measured:
[1] = system: Group II/III metabotropic glutamate receptors (mGluRs); experiment: Cyclic AMP assay (forskolin-induced cyclic AMP accumulation in cortical slices); type: cell-based, Sprague Dawley rat; settings: rat cortical slices; for Group II/III Agonist: inhibits forskolin-induced cyclic AMP accumulation; for Group II/III Antagonist: inhibits the glutamate-caused decrease in forskolin-induced cyclic AMP accumulation
Method: The assay of cyclic AMP formation can be performed as described previously (Tovey et al., Clinica Chimica Acta, 56, 221-234, 1974). The assay can be modelled on the cyclic AMP assay kit available from Amersham, which in turn, is based on the assay created by Tovey et al. Briefly, samples are prepared from Sprague Dawley rat (225-250 g) cortical slices. Slices are incubated with the drug, and then challenged with forskolin to induce cyclic AMP release. Following termination of the reaction by boiling, the slices are homogenized and centrifuged. Samples of supernatant are then incubated for 2-3 hours with a known quantity of [^3H]cAMP and a binding protein. When the incubation is complete, the bound cyclic AMP is separated from the free cyclic AMP by centrifugation with charcoal. The resulting supernatant (containing free cyclic AMP) is then analyzed by liquid scintillation counting. The amount of unbound cyclic AMP can be calculated from a standard curve previously determined with various samples of free cyclic AMP.
Group II/III metabotropic glutamate receptors (mGluRs) are negatively coupled to adenylate cyclase, and agonists of these receptors lead to a decrease in intracellular cyclic AMP accumulation.
The assay has been modeled on the cyclic AMP assay kit available from Amersham. This kit, in turn, is based on the assay created by Tovey et al. (1974). Briefly, the samples were prepared from Sprague Dawley rat (225-250 g) cortical slices. Slices were incubated with the test compound (drug), and then challenged with forskolin to induce cyclic AMP release. Following termination of the reaction by boiling, the slices were homogenized and centrifuged. Samples of supernatant were then incubated for 2-3 hours with a known quantity of [^3H]cAMP and a binding protein. When the incubation was complete, the bound cyclic AMP was separated from the free cyclic AMP by centrifugation with charcoal. The resulting supernatant (containing free cyclic AMP) was then analyzed by liquid scintillation counting. The amount of unbound cyclic AMP was calculated from a standard curve previously determined with various samples of free cyclic AMP.
If the drugs tested inhibit forskolin-induced cyclic AMP accumulation, they are considered to be Group II/III agonists. Conversely, if they inhibit the decrease in forskolin-induced cyclic AMP accumulation caused by glutamate, they are considered to be Group II/III antagonists.

[2] = system: Group I metabotropic glutamate receptors (mGluRs); experiment: Phosphatidylinositol assay (inositol phosphate accumulation in neonatal tissue slices); type: cell-based, Sprague Dawley rat; settings: neonatal rat slices, 45 minutes; for EC50: antagonist mode vs ACPD; for Group I Agonist: increase in intracellular free inositol phosphate accumulation; for Group I Antagonist: inhibits inositol phosphate accumulation induced by ACPD
Method: Phosphatidylinositol (PI) hydrolysis can be measured as described below: Briefly, cross-chopped slices are prepared from neonatal Sprague Dawley rat tissue (age: p7-p14). The slices are pre-labelled with [^3H] myo-inositol. Following pre-labelling, the slices are incubated with the test drugs and standard (known Group I agonists i.e. ACPD) for a period of 45 minutes. The incubation is terminated by the addition of chloroform/methanol/HCl (100:200:2). The resulting mixture is separated into two phases by the addition of chloroform and distilled water. The aqueous fraction is applied to ion exchange columns, and inositol phosphates are eluted using 800 mM Ammonium Formate/100 mM Formic Acid. The eluent is then analyzed using liquid scintillation counting. The amount of inositol phosphate accumulation is expressed as a percentage of that induced by ACPD.
Group I metabotropic glutamate receptors (mGluRs) are positively coupled on inositol phosphate metabolism. Agonists at these receptors lead to an increase in intracellular free inositol phosphates, while antagonists inhibit the increase in intracellular free inositol phosphate induced by standard agonists (i.e. ACPD).
Cross-chopped slices were prepared from neonatal Sprague Dawley rat tissue (age: p7-p14). The slices were pre-labelled with [^3H] myo-inositol. Following pre-labelling, the slices were incubated with the test compounds and standard (known Group I agonists i.e. ACPD) for a period of 45 minutes. The incubation was terminated by the addition of chloroform/methanol/HCl (100:200:2). The resulting mixture was separated into two phases by the addition of chloroform and distilled water. The aqueous fraction was applied to ion exchange columns, and inositol phosphates were eluted using 800 mM Ammonium Formate/100 mM Formic Acid. The eluent was then analyzed using liquid scintillation counting. The amount of inositol phosphate accumulation was expressed as a percentage of that induced by ACPD.
If the drugs cause an increase in intracellular free inositol phosphate accumulation, they are considered to be Group I agonists. […]

[3] = antagonist mode vs glutamate, read-out: EC50 (M), Group II/III Antagonist
[4] = agonist mode, read-out: EC50 (M), Group II/III Agonist

N[C@@]1(C(=O)O)CCCC12CC2C(=O)O (some centres unmarked) [Compound 7, Spiro[2.4]heptane-4-amino-1,4-dicarboxylic acid]
EC50 [1, 3]: 1.4e-09 M
Group II/III Agonist [1]: No
Group II/III Antagonist [1]: Yes
EC50 [2]: 220 nM
Group I Agonist [2]: No
Group I Antagonist [2]: Yes

N[C@]1(C(=O)O)CCCC12CC2C(=O)O (some centres unmarked) [Compound 8, Spiro[2.4]heptane-4-amino-1,4-dicarboxylic acid]
EC50 [1, 3]: 1e-06 M
Group II/III Agonist [1]: No
Group II/III Antagonist [1]: yes
EC50 [2]: 94 nM
Group I Agonist [2]: No
Group I Antagonist [2]: Yes

NC1(C(=O)O)CCCC12C(C(=O)O)C2c1ccccc1 (centres unmarked) [Compound 16, Spiro[2.4]heptane4-amino-2-phenyl-1,4-dicarboxylic Acid]
EC50 [1, 4]: 1e-09 M
Group II/III Agonist [1]: Yes
Group II/III Antagonist [1]: No
EC50 [2]: 100 nM
Group I Agonist [2]: No
Group I Antagonist [2]: Yes

NC1(C(=O)O)CC2(CC2C(=O)O)c2ccccc21 (centres unmarked) [Compound 22, 1-Amino-1-carboxyindan-3-spiro-cyclopropanecarboxylic Acid]
EC50 [1, 3]: 8.7e-10 M
Group II/III Agonist [1]: No
Group II/III Antagonist [1]: No
Group I Agonist [2]: No
Group I Antagonist [2]: No

NC(C(=O)O)C1CCCC12CC2C(=O)O (centres unmarked) [Compound 26, Spiro[4,2]heptane-1-carboxy-4-glycine]
EC50 [1, 4]: 1.6e-06 M
Group II/III Agonist [1]: Yes
Group II/III Antagonist [1]: Yes
EC50 [2]: 88 nM
Group I Agonist [2]: No
Group I Antagonist [2]: Yes

NC(C(=O)O)C1CCCC12CC2C(=O)O (centres unmarked) [Compound 27, Spiro[4,2]heptane-1-carboxy-4-glycine]
EC50 [1, 4]: 8.7e-11 M
Group II/III Agonist [1]: Yes
Group II/III Antagonist [1]: Yes
EC50 [2]: 0.84 nM
Group I Agonist [2]: No
Group I Antagonist [2]: Yes
